Assay results from US9458176B2, “Tetrahydroimidazo(1,5-D)[1,4]oxazepine derivative” (Eisai R&D Management Co., Ltd., priority 2013, dated 2016).

target: human mGluR2 (Homo sapiens (Human), UniProt Q14416); test: [35S]GTPγS binding assay (Affinity to mGluR2); format: biochemical; conditions: cell membrane fraction of HEK293 cells stably expressing human mGluR2; glutamic acid 10 μM
In short: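 Membranes from HEK293 cells stably co-expressing human mGluR2 and SLC1A3 (1.8–3 μg protein) preincubated with compound 30 min at RT, then stimulated with 10 μM glutamate 15 min; [35S]GTPγS (0.8 kBq) with WGA-SPA beads 1 h, buffer with 3 μM GDP, 100 mM NaCl, 1 mM MgCl2. IC50 from inhibition of glutamate-specific binding.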

Sequence of human mGluR2 (Q14416 19-872): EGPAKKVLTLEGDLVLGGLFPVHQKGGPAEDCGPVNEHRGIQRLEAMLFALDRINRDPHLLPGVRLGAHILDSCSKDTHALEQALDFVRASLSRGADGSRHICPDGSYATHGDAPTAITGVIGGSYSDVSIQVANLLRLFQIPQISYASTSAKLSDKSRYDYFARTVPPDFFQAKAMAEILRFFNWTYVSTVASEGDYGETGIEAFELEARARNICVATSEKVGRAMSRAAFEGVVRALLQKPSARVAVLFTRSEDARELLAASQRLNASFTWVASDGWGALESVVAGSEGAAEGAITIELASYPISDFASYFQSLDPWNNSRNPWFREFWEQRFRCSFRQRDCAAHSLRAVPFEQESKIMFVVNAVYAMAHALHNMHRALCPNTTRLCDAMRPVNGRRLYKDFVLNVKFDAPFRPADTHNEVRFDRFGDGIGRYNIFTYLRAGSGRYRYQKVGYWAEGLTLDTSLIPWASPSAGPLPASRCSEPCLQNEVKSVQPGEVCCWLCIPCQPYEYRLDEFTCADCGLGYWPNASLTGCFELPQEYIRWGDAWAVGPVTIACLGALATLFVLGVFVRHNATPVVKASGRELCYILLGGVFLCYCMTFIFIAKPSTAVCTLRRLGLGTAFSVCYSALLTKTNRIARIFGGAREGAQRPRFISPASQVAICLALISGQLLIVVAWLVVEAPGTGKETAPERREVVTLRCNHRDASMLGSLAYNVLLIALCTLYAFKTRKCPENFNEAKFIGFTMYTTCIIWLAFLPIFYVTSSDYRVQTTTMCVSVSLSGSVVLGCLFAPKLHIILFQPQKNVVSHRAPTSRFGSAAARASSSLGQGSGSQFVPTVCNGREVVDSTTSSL

SMILES | IC50 [nM]
COc1ccc(-c2nc(-c3cc(C)nc(C)c3)c3n2C[C@@H](CF)OCC3)cc1Cl [Example 36, (S)-3-(3-chloro-4-methoxyphenyl)-1-(2,6-dimethylpyridin-4-yl)-6-(fluoromethyl)-5,6,8,9-tetrahydroimidazo[1,5-d][1,4]oxazepine] | 10
CCOc1ccc(-c2nc(-c3cc(C)nc(C)c3)c3n2C[C@@H](C)OCC3)cc1Cl [Example 34, (R)-3-(3-chloro-4-ethoxyphenyl)-1-(2,6-dimethylpyridin-4-yl)-6-methyl-5,6,8,9-tetrahydroimidazo[1,5-d][1,4]oxazepine] | 2.8
Cc1cc(-c2nc(-c3ccnc(F)c3)c3n2CCOCC3)ccc1OC(F)(F)F [Example 115] | 61.7
Cc1cc(-c2nc(-c3ccc(OCC(F)(F)F)c(F)c3)n3c2CCOCC3)cc(C)n1 [Example 2, 1-(2,6-dimethylpyridin-4-yl)-3-(3-fluoro-4-(2,2,2-trifluoroethoxy)phenyl)-5,6,8,9-tetrahydroimidazo[1,5-d][1,4]oxazepine] | 97.4
COc1cc(-c2nc(-c3cc(C)nc(C)c3)c3n2C[C@@H](C)OCC3)ccc1OC(F)(F)F [Example 25, (R)-1-(2,6-dimethylpyridin-4-yl)-3-(3-methoxy-4-(trifluoromethoxy)phenyl)-6-methyl-5,6,8,9-tetrahydroimidazo[1,5-d][1,4]oxazepine] | 3.2
Cc1cc(-c2nc(-c3ccc(Cl)c(C#N)c3)n3c2CCO[C@H](C)C3)cc(C)n1 [Example 130] | 26
COc1cc(-c2nc(-c3ccnc(C)c3)c3n2C[C@@H](CF)OCC3)ccc1OC(F)(F)F [Example 17, (S)-6-(fluoromethyl)-3-(3-methoxy-4-(trifluoromethoxy)phenyl)-1-(2-methylpyridin-4-yl)-5,6,8,9-tetrahydroimidazo[1,5-d][1,4]oxazepine] | 3.8
Cc1cc(-c2nc(-c3ccc(OC(C)C)c(Cl)c3)n3c2CCO[C@H](CF)C3)cc(C)n1 [Example 38, (S)-3-(3-chloro-4-isopropoxyphenyl)-1-(2,6-dimethylpyridin-4-yl)-6-(fluoromethyl)-5,6,8,9-tetrahydroimidazo[1,5-d][1,4]oxazepine] | 5.4
Cc1cc(-c2nc(-c3ccc(Cl)c(Cl)c3)n3c2CCOCC3)cc(C)n1 [Example 103] | 26
Cc1cc(-c2nc(-c3ccc(C(F)F)c(Cl)c3)n3c2CCOCC3)cc(C)n1 [Example 137] | 18.7
COc1cc(-c2nc(-c3cc(C)nc(C)c3)c3n2CCOCC3)ccc1C(F)(F)F [Example 122] | 22.1
Cc1cc(-c2nc(-c3ccc(Cl)c(C)c3)n3c2CCO[C@H](C)C3)cc(CF)n1 [Example 88] | 16.7
Cc1cc(-c2nc(-c3ccc(C(F)(F)F)c(F)c3)n3c2CCO[C@H](C)C3)cc(C)n1 [Example 134] | 27.8
Cc1cc(-c2nc(-c3ccc(OC4CC4)c(C)c3)n3c2CCO[C@H](C)C3)cc(C)n1 [Example 20, (R)-3-(4-cyclopropoxy-3-methylphenyl)-1-(2,6-dimethylpyridin-4-yl)-6-methyl-5,6,8,9-tetrahydroimidazo[1,5-d][1,4]oxazepine] | 3.4
CCOc1cc(-c2nc(-c3cc(C)nc(C)c3)c3n2CCOCC3)ccc1Cl [Example 102] | 22.7
Cc1cc(-c2nc(-c3ccc(F)c(OCC4CC4)c3)n3c2CCOCC3)cc(C)n1 [Example 94] | 34.9

SMILES | IC50 [nM]
COc1cc(-c2nc(-c3cc(C)nc(C)c3)c3n2CCOCC3)ccc1C [Example 46] | 65.6
COc1cc(-c2nc(-c3cc(C)nc(C)c3)c3n2C[C@@H](C)OCC3)ccc1C(F)F [Example 128] | 9.1
Cc1cc(-c2nc(-c3ccc(C(F)(F)F)c(C)c3)n3c2CCOCC3)cc(C)n1 [Example 113] | 27
Cc1cc(-c2nc(-c3ccc(OC(F)(F)F)c(Cl)c3)n3c2CCO[C@H](C)C3)cc(C)n1 [Example 133] | 4.4
COc1cc(-c2nc(-c3cc(C)nc(C)c3)c3n2CCOCC3)ccc1Br [Example 4, 3-(4-bromo-3-methoxyphenyl)-1-(2,6-dimethylpyridin-4-yl)-5,6,8,9-tetrahydroimidazo[1,5-d][1,4]oxazepine] | 31.9
Cc1cc(-c2nc(-c3ccc(OC(F)(F)F)cc3)n3c2CCOCC3)ccn1 [Example 43] | 90
Cc1cc(-c2nc(-c3ccc(F)c(OCC4CCC4)c3)n3c2CCOCC3)cc(C)n1 [Example 97] | 25.4
Cc1cc(-c2nc(-c3ccc(Cl)c(C)c3)n3c2CCO[C@H](CF)C3)cc(C)n1 [Example 73] | 24.8
CCCOc1cc(-c2nc(-c3cc(C)nc(C)c3)c3n2CCOCC3)ccc1F [Example 96] | 59.8
COc1cc(-c2nc(-c3ccnc(C)c3)c3n2C[C@@H](CF)OCC3)ccc1C [Example 72] | 29.4
COc1ccc(-c2nc(-c3cc(C)nc(C)c3)c3n2C[C@@H](C)OCC3)cc1F [Example 59] | 96.3
CC[C@@H]1Cn2c(-c3ccc(Cl)c(OC)c3)nc(-c3ccnc(C)c3)c2CCO1 [Example 78] | 3.8
Cc1cc(-c2nc(-c3ccc(OC(F)F)c(Cl)c3)n3c2CCO[C@H](C)C3)cc(C)n1 [Example 32, (R)-3-(3-chloro-4-(difluoromethoxy)phenyl)-1-(2,6-dimethylpyridin-4-yl)-6-methyl-5,6,8,9-tetrahydroimidazo[1,5-d][1,4]oxazepine] | 2.8
COc1cc(-c2nc(-c3cc(C)nc(C)c3)c3n2C[C@@H](C(F)F)OCC3)ccc1Cl [Example 79] | 30.4
Cc1cc(-c2nc(-c3cccc(Cl)c3)n3c2CCO[C@H](C)C3)ccn1 [Example 63] | 78.6

same assay, conditions: cell membrane fraction of HEK293 cells stably expressing human mGluR2; glutamic acid 10 μM; inhibition of specific [35S]GTPγS binding

SMILES | IC50 [nM]
Cc1cc(-c2nc(-c3ccc(OC(F)F)c(C)c3)n3c2CCO[C@H](CF)C3)cc(CF)n1 [Example 207] | 6
Cc1cc(-c2nc(-c3ccc(C(F)F)c(Cl)c3)n3c2CCO[C@H](CF)C3)cc(C)n1 [Example 197] | 15.1
Cc1cc(-c2nc(-c3ccc(OC(F)(F)F)c(CO)c3)n3c2CCO[C@H](C)C3)cc(C)n1 [Example 229] | 18
Cc1cc(-c2nc(-c3ccc(F)c(Cl)c3)n3c2CCO[C@H](CF)C3)cc(C)n1 [Example 171] | 26.7
COc1ccc(-c2nc(-c3cc(C)nc(C)c3)c3n2C[C@@H](C)OCC3)cc1OC(F)(F)F [Example 154] | 6.7
COc1cc(-c2nc(-c3cc(C)nc(CF)c3)c3n2C[C@@H](CF)OCC3)ccc1OC(F)F [Example 209] | 5.1
COc1ccc(-c2nc(-c3cc(C)nc(C(F)F)c3)c3n2C[C@@H](C)OCC3)cc1Cl [Example 190] | 42.2
Cc1cc(-c2nc(-c3ccc(OC4CC4)c(OC(F)(F)F)c3)n3c2CCOCC3)cc(C)n1 [Example 144] | 27.7
COc1ccc(-c2nc(-c3cc(C)nc(C)c3)c3n2C[C@@H](CF)OCC3)cc1C [Example 245] | 5.2
Cc1cc(-c2nc(-c3ccc(OC(F)(F)F)c(C)c3)n3c2CCO[C@H](C)C3)cc(CO)n1 [Example 179] | 17.9
Cc1cc(-c2nc(-c3ccc(OC(F)F)c(F)c3)n3c2CCO[C@H](C)C3)ccn1 [Example 182] | 19.3
Cc1cc(-c2nc(-c3ccc(OC(F)(F)F)c(CF)c3)n3c2CCO[C@H](C)C3)cc(C)n1 [Example 231] | 2.4
COc1cc(-c2nc(-c3cc(C)nc(CF)c3)c3n2C[C@@H](C)OCC3)ccc1C(F)(F)F [Example 200] | 4.4
CCOc1cc(-c2nc(-c3cc(C)nc(C)c3)c3n2C[C@@H](C)OCC3)ccc1C [Example 225] | 3.9
Cc1cc(-c2nc(-c3ccc(F)c(OC(F)(F)F)c3)n3c2CCO[C@H](C)C3)ccn1 [Example 158] | 44.6
Cc1cc(-c2nc(-c3ccc(OC(F)(F)F)c(F)c3)n3c2CCO[C@H](CF)C3)cc(CO)n1 [Example 170] | 43.1

SMILES | IC50 [nM]
COc1cc(-c2nc(-c3ccnc(C)c3)c3n2C[C@@H](C)OCC3)ccc1OC(F)F [Example 149] | 18.9
Cc1cc(-c2nc(-c3ccc(C)c(C(F)(F)F)c3)n3c2CCO[C@H](C)C3)cc(C)n1 [Example 183] | 7.4
Cc1cc(-c2nc(-c3ccc(F)c(Cl)c3)n3c2CCO[C@H](CF)C3)ccn1 [Example 172] | 38.3
Cc1cc(-c2nc(-c3ccc(F)c(C(F)(F)F)c3)n3c2CCO[C@H](C)C3)cc(C)n1 [Example 143] | 13.6
COc1cc(-c2nc(-c3cc(C)nc(C(F)F)c3)c3n2C[C@@H](C)OCC3)ccc1C(F)F [Example 189] | 15.1
Cc1cc(-c2nc(-c3ccc(F)c(C(F)(F)F)c3)n3c2CCO[C@H](C)C3)ccn1 [Example 151] | 26.4
Cc1cc(-c2nc(-c3ccc(OC(F)(F)F)c(C#N)c3)n3c2CCO[C@H](C)C3)cc(C)n1 [Example 168] | 4.2
Cc1cc(-c2nc(-c3ccc(OC(F)F)c(Cl)c3)n3c2CCO[C@H](CF)C3)cc(C)n1 [Example 233] | 2
COc1ccc(-c2nc(-c3cc(C)nc(CF)c3)c3n2C[C@@H](C)OCC3)cc1OC(F)(F)F [Example 210] | 4.7
COc1cc(-c2nc(-c3cc(C)nc(C)c3)c3n2C[C@@H](CF)OCC3)ccc1OC(F)F [Example 163] | 15.8
COc1cc(-c2nc(-c3ccnc(C)c3)c3n2C[C@@H](CF)OCC3)ccc1OC(F)F [Example 164] | 36.8
Cc1cc(-c2nc(-c3ccc(OC(F)(F)F)c(F)c3)n3c2CCO[C@H](C)C3)cc(CF)n1 [Example 206] | 18.7
Cc1cc(-c2nc(-c3ccc(OC(F)(F)F)c(F)c3)n3c2CCO[C@H](C)C3)cc(C)n1 [Example 147] | 10.5
CCOc1ccc(-c2nc(-c3cc(C)nc(C)c3)c3n2C[C@@H](CF)OCC3)cc1C [Example 243] | 1.7
Cc1cc(-c2nc(-c3ccc(OC4CC4)c(Cl)c3)n3c2CCO[C@H](CF)C3)cc(C)n1 [Example 167] | 1.8
